Results reported in ChEMBL document CHEMBL1201862, “PubChem BioAssay data set” (2004).
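Grown in 96-well plates, cells were treated for 48 hours with each compound at five concentrations. Insufficient inhibition: endpoint recorded as highest concentration tested. Here, GI50 denotes the concentration required for 50% inhibition of growth.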 Activity calls are given as the source filed them. Cut-off read from the data, not from the text of the source: active = GI50 up to about 1.1 µM and inactive = higher.

Key:
Test in all cases: NCI tumour cell line growth inhibition, 48 h
[1] = system: CAKI-1
[2] = system: HL-60
[3] = system: OVCAR-3
[4] = system: A498
[5] = system: UO-31
[6] = system: SF-295
[7] = system: NCI-H226
[8] = system: OVCAR-8
[9] = system: NCI-H522
[10] = system: UACC-257
[11] = system: RPMI-8226
[12] = system: PC-3
[13] = system: HT-29
[14] = system: K562
[15] = system: COLO 205
[16] = system: BT-549
[17] = system: HCC 2998
[18] = system: SK-MEL-2
[19] = system: SNB-19

Measured: GI50

Cc1cc(S(=O)(=O)Nc2n[nH]c(-c3ccc(Cl)cc3)n2)c(SSc2cc(Cl)c(C)cc2S(=O)(=O)Nc2n[nH]c(-c3ccc(Cl)cc3)n2)cc1Cl
inactive: [1] 34.2 µM | [2] 23.2 µM | [3] 28.3 µM | [4] 24.6 µM | [5] 29.4 µM | [6] 31.7 µM | [7] 22.5 µM | [8] 34.4 µM | [9] 32.2 µM | [10] 61.7 µM | [11] 37.2 µM | [12] 29.2 µM | [13] 23.6 µM | [14] 27 µM | [15] 25.9 µM | [16] 40.6 µM | [17] 19.6 µM

COc1cc(C(=O)N(C(=S)OC23CC4CC(CC(C4)C2)C3)c2ccccc2)cc(OC)c1OC
inactive: [1] 31.3 µM | [2] 9.73 µM | [3] 28.1 µM | [4] 24.9 µM | [5] 19.1 µM | [6] 22.1 µM | [7] 21.5 µM | [8] 27 µM | [9] 3.95 µM | [10] 26.4 µM | [12] 22.6 µM | [13] 17.7 µM | [14] 2.75 µM | [15] 16.4 µM | [18] 15.2 µM | [16] 33 µM | [17] 23.4 µM | [19] 34.6 µM

NC(CC(O)(c1ccccc1)c1ccccc1)c1ccccc1S (configuration not stated)
inactive: [2] 15 µM | [3] 16 µM | [4] 17.6 µM | [5] 11.4 µM | [6] 14.9 µM | [7] 15 µM | [8] > 10 µM | [9] 16.6 µM | [10] 18.9 µM | [11] 22.2 µM | [12] 11.4 µM | [13] 14.5 µM | [14] 16.4 µM | [15] 15.4 µM | [18] 15.9 µM | [16] 14.7 µM | [17] 17.3 µM | [19] 16.4 µM

OCCOCn1nncc1Cn1ncc2c(O)ncnc21
inactive: [1] > 100 µM | [2] 23.9 µM | [3] 28.6 µM | [4] > 100 µM | [5] > 100 µM | [6] > 100 µM | [7] > 100 µM | [8] > 100 µM | [9] 60.8 µM | [10] > 100 µM | [12] 55.1 µM | [13] 40 µM | [14] 43.6 µM | [15] 97.7 µM | [18] 54.1 µM | [16] > 100 µM | [17] > 100 µM | [19] > 100 µM

COC(=O)[C@@H](NC(=O)N(CCC#N)CCCN(C(=O)N[C@H](Cc1ccccc1)C(=O)OC)c1ccccc1)C(C)C
inactive: [1] > 100 µM | [3] 57.8 µM | [4] > 100 µM | [5] 97.5 µM | [6] > 100 µM | [7] > 100 µM | [8] > 100 µM | [9] 40.4 µM | [10] 29.2 µM | [11] 25.1 µM | [12] 81.8 µM | [15] > 100 µM | [18] 40.6 µM | [16] > 100 µM | [17] 47.3 µM | [19] > 100 µM

CC1(C)CN(CC(=O)O)CC(Cc2ccc(OCC(=O)O)cc2)N(CC(=O)O)CC(C)(C)SS1 (configuration not stated)
inactive: [1] > 100 µM | [3] > 100 µM | [4] > 100 µM | [5] > 100 µM | [6] > 100 µM | [7] > 100 µM | [8] > 100 µM | [9] > 100 µM | [10] > 100 µM | [11] > 100 µM | [12] > 100 µM | [13] > 100 µM | [14] > 100 µM | [15] > 100 µM | [18] > 100 µM | [16] > 100 µM | [17] > 100 µM | [19] > 100 µM

O=C(n1c(=O)n(-c2ccc(Cl)cc2)c(=O)n1C(=O)C(Cl)(Cl)Cl)C(Cl)(Cl)Cl
inactive: [1] > 100 µM | [2] > 100 µM | [3] > 100 µM | [4] > 100 µM | [5] 31 µM | [6] > 100 µM | [8] > 100 µM | [9] > 100 µM | [10] > 100 µM | [11] > 100 µM | [12] > 100 µM | [13] > 100 µM | [14] 21.4 µM | [15] > 100 µM | [18] > 100 µM | [16] 66.5 µM | [17] > 100 µM | [19] > 100 µM

O=C1N/N=C\Nc2ccc(cc2)S(=O)(=O)c2ccc(cc2)/N=C\NNC1=O
inactive: [1] > 100 µM | [2] 10.1 µM | [3] > 100 µM | [4] 20 µM | [5] > 100 µM | [6] > 100 µM | [7] > 100 µM | [8] > 100 µM | [9] > 100 µM | [10] > 100 µM | [12] > 100 µM | [13] > 100 µM | [14] > 100 µM | [15] > 100 µM | [18] > 100 µM | [16] 72.8 µM | [17] > 100 µM | [19] > 100 µM

N=C1N(S(=O)(=O)c2ccccc2)[C@@H](Cc2ccccc2)[C@H](c2ccccc2)C1(c1ccccc1)c1ccccc1
inactive: [1] > 100 µM | [2] 4.12 µM | [3] 10.4 µM | [4] > 100 µM | [5] 8.55 µM | [6] > 100 µM | [8] 41 µM | [9] 39.5 µM | [10] 35.6 µM | [11] 14 µM | [12] 9.62 µM | [13] > 100 µM | [14] 71.1 µM | [15] 80.7 µM | [18] > 100 µM | [16] > 100 µM | [17] 27.2 µM | [19] > 100 µM

COc1ccc(C2CC(c3cc4c(C)c(C(=O)c5ccccc5)oc4cc3O)=Nc3ccccc3S2)cc1OC (configuration not stated)
inactive: [2] 9.82 µM | [4] > 57.5 µM | [5] > 100 µM | [7] > 100 µM | [8] > 100 µM | [9] 19.1 µM | [10] > 100 µM | [11] > 91.6 µM | [12] > 100 µM | [13] > 100 µM | [14] > 72.9 µM | [15] > 100 µM | [18] > 59.2 µM | [16] > 56.5 µM | [17] > 100 µM | [19] 48.8 µM

Cc1nc2ccc(F)cc2c(Cl)c1CCCl
inactive: [2] 16.1 µM | [3] 42.3 µM | [4] 63.1 µM | [5] 73.1 µM | [6] 51.1 µM | [7] 54.1 µM | [8] 49.3 µM | [9] 31.5 µM | [10] 39 µM | [11] 42.8 µM | [12] 44.4 µM | [13] 25 µM | [14] 25.8 µM | [15] 20 µM | [16] 36.9 µM | [17] 33.4 µM | [19] 36.4 µM
